This is an account of results in ChEMBL document CHEMBL5108018, “Discovery of MDM2-p53 and MDM4-p53 protein-protein interactions small molecule dual inhibitors” (Eur J Med Chem, 2022).

Assay [1] has as its target Tumour suppressor protein p53/Mdm4 (Homo sapiens, UniProt O15151+P04637). Kind of assay: Inhibition of MDM4/p53 interaction in human SH-SY5Y cells preincubated for 10 mins under shaking condition and measured after 1.5 hrs by immuno-enzymatic assay. It is filed as cell-based.
The target in assay [2] is Tumour suppressor p53/oncoprotein Mdm2 (Homo sapiens, UniProt P04637+Q00987). Kind of assay: Inhibition of MDM2/p53 interaction in human U-87 MG cells preincubated for 10 mins under shaking condition and measured after 1.5 hrs by immuno-enzymatic assay. The format is cell-based.
Chain of Tumour suppressor p53/oncoprotein Mdm2 (P04637 whole entry): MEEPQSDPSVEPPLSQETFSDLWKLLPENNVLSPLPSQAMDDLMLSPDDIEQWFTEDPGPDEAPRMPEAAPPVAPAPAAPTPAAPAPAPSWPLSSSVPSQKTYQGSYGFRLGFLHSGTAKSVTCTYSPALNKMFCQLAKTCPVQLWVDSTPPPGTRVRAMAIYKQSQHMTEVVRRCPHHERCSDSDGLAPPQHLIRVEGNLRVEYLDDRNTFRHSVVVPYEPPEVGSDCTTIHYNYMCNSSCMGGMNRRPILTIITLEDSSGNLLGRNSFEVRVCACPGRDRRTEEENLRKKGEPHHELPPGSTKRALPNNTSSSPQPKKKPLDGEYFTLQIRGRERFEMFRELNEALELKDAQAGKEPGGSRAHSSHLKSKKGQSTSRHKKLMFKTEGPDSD
Chain of Tumour suppressor p53/oncoprotein Mdm2 (Q00987 whole entry): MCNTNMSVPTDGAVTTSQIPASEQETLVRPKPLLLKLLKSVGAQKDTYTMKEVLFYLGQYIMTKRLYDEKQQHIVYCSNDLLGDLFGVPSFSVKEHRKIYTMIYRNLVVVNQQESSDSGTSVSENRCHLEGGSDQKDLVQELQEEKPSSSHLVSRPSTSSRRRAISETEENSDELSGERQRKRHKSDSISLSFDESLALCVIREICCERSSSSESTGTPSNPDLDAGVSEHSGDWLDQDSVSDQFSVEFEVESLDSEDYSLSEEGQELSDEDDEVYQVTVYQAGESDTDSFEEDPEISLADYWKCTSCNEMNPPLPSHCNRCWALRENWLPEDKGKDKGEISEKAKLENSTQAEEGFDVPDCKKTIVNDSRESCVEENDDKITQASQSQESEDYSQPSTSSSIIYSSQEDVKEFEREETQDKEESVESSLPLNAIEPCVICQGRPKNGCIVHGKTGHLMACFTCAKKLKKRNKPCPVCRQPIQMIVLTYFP

Chain of Tumour suppressor protein p53/Mdm4 (P04637 whole entry): as the sequence (P04637 whole entry) above
Chain of Tumour suppressor protein p53/Mdm4 (O15151 whole entry): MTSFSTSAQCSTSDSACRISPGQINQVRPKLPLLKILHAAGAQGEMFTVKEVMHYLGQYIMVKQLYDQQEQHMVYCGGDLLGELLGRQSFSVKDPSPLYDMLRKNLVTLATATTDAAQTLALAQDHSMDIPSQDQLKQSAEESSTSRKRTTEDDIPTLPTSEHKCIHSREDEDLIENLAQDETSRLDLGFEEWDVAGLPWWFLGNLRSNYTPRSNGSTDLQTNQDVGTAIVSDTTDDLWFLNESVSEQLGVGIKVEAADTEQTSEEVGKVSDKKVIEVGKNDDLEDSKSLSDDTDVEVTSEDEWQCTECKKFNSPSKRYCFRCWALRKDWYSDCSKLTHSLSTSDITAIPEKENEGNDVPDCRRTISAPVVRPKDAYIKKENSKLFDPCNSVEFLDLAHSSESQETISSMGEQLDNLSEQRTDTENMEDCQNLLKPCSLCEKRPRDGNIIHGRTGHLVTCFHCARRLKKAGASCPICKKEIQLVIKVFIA

The IC50 is the concentration at which inhibition is half-maximal. A higher IC50 goes with weaker potency in that assay. For `O=C1Nc2ccc(Br)cc2C12C(c1ccccc1)C(c1ccccc1)=NN2c1ccccc1` (configuration not stated), the IC50 in assay [1] was determined as 295 nM; in assay [2] it was 144 nM.
